For test [1], the system named is IL-6 amplifier. As to the kind of experiment: Example 1: mIL-6 protein production on IL-6 amplifier activation in BC-1 cells or MEFs (ELISA). In kind it is cell-based, mouse. The following applies: 30 min pretreatment with 0.1, 1 or 10 micromoles/L ErbB1 inhibitor, then conditions (a) to (d), 24 hours, 10% FBS. The procedure:
2×10^5 mouse BC-1 cells were cultured in an RPMI 1640 medium for 24 hours under each of the following conditions: • (a) in the presence of 10% FBS, • (b) with the addition of 50 ng/ml of hIL-6 protein and 50 ng/ml of hIL-6R protein (hereinafter referred to as “hIL-6/6R proteins”) and in the presence of 10% FBS, • (c) with the addition of 50 ng/ml of mIL-17A protein and in the presence of 10% FBS, • (d) with the addition of hIL-6/6R proteins at 50 ng/ml and mIL-17A protein at 50 ng/ml and in the presence of 10% FBS, • (e) in the absence of FBS, • (f) with the addition of hIL-6/6R proteins each at 50 ng/ml and in the absence of FBS, • (g) with the addition of 50 ng/ml of mIL-17A protein and in the absence of FBS, or • (h) with the addition of hIL-6/6R proteins each at 50 ng/ml and mIL-17A protein at 50 ng/ml and in the absence of FBS.
2×10^5 mouse BC-1 cells or 2×10^5 mouse embryonic fibroblasts (MEFs) were cultured for 30 minutes in an RPMI 1640 medium, in the presence of 0.1, 1, or 10 micromoles/L of PD153065; or in the presence of 0.1, 1, or 10 micromoles/L of PD168393 (Calbiochem). […]
After the culture, the production amount of mouse IL-6 protein under each condition was quantified by an ELISA method. […]
(ELISA stands for enzyme-linked immunosorbent assay.)

Test [2] deals with IL-6 amplifier. Kind of test: Reference Example 10: hIL-6 gene expression in human synovial fibroblasts with epiregulin (RT-PCR). In kind it is cell-based. The following applies: 3 hours, 100 ng/ml epiregulin protein, inhibitor 0 or 10 micromoles/L.
Procedure: In addition, the expression amounts of mIL-6 gene were quantified by a real-time RT-PCR method. The real-time RT-PCR method was performed using a GeneAmp 5700 sequence detection system (Applied Biosystems) and a SYBER green PCR Master Mix (Sigma-Aldrich Co. LLC.). The conditions of the PCR amplification were as follows: the amplification was performed in 40 cycles, each cycle consisting of thermal denaturation (94° C., 15 seconds), annealing (60° C., 30 seconds), and extension reaction (72° C., 30 seconds)). […] After the culture, the expression amount of human IL-6 gene under each condition was quantified by a RT-PCR method in the same manner as in Reference Example 9.
Test [3] relates to cytokine-induced arthritis mice. Kind of test: Clinical score of arthritis in cytokine-induced arthritis mice (F759 mice). In kind it is in vivo, mouse. The procedure: On each of days 0, 1, and 2, 100 ng of mIL-6 protein and 100 ng of mIL-17A protein, as cytokines, were injected into the malleolus joints of 8-week-old F759 mice to induce arthritis. At the same time, on each of days 0 to 23, 10 micrograms of PD153035 dissolved in DMSO was injected into the malleolus joints (n=6). Mice injected with the cytokines and DMSO only (n=6), and mice injected with DMSO only (n=6) served as control groups.
From day 0 to day 23, symptom of arthritis was evaluated by clinical scores. Specific examples of the evaluation are described below and in FIG. 2. Specifically, for example, the clinical score is 0 if the movable range of malleolus joint is a healthy state as shown in FIG. 14(A), and the clinical score is 3 if severe arthritis develops and the movable range of malleolus joint is 60° smaller than the healthy case as shown in FIG. 14(B). Further, the clinical score is 1 if the movable range of malleolus joint is 20° smaller than the healthy case, and the clinical score is 2 if the movable range of malleolus joint is 40° smaller than the healthy case.
F759 mice used as cytokine-induced arthritis mice are genetically modified mice in which F759 mutation (in which tyrosine residue 759 (Y) is replaced by phenylalanine (F) in gp130 protein, a receptor of IL-6 protein, etc.) is introduced (Non-Patent Literature 3); and in F759 mice, dysregulation of IL-6 amplifier is observed (Non-Patent Literature 1). Dysregulation of IL-6 amplifier observed in F759 mice is believed to be caused as follows: SOCS3 protein signal transduction, which is dependent on the phosphorylation status of tyrosine residue 759 (Y759) of gp130 protein, is inhibited by F759 mutation, thereby decreasing the action of suppressing STAT3 signals via SOCS3 protein to enhance STAT3-dependent signals. It is known that autoimmune arthritis develops in almost 100% of the mice one to one-and-a-half years after birth. It is also known that arthritis develops earlier by injecting inflammatory cytokines, such as IL-6 and IL-17, into joints (e.g., malleolus joints) of the mice. […]

Test [4] deals with IL-6 amplifier. As to the kind of experiment: Reference Example 5: mIL-6 production on IL-6 amplifier activation with epiregulin in BC-1 cells (ELISA). Type of test: cell-based. To be noted: 24 hours, 100 ng/ml mouse epiregulin protein, conditions (e) to (h), inhibitor 0, 0.1, 1 or 10 micromoles/L. The procedure:
After the culture, the production amount of mouse IL-6 (mIL-6) protein in each of the clones, i.e., the amount of mIL-6 protein in the medium solution, was quantified by an ELISA method. In the ELISA method, anti-mIL-6 antibody and an ELISA kit, both manufactured by eBioscience, Inc., were used. In addition, a cell proliferation assay was performed for each of the clones, using a TetraColor ONE kit (Seikagaku Corporation). […]
After the culture, the production amount of mouse IL-6 protein under each condition was quantified by an ELISA method in the same manner as in Reference Example 1. […]

Test [5] deals with experimental autoimmune encephalomyelitis (EAE) mice. As to the kind of experiment: Clinical score in experimental autoimmune encephalomyelitis (EAE) mice. Type of test: in vivo, mouse. To be noted: 5 mg intraperitoneal on each of days 0 to 6, scored day 0 to 13, control DMSO. The procedure: EAE mice were made according to the method described in Non-Patent Literature 1.
200 micrograms of MOG (myelin oligodendrocyte glycoprotein) peptide (peptide comprising residues 33 to 55 of the full-length amino acid sequence of mouse MOG protein (amino acid sequence shown in SEQ ID NO: 9)) dissolved in Complete Freund's adjuvant (CFA) was administered to the tail of a 7- to 8-week-old C57/B6-strain mouse by subcutaneous injection, followed by intravenous injection of 200 nanograms of pertussis toxin (PTx).
A MOG-specific CDCT cell group was obtained according to a ordinary method from the spleen removed after feeding the above mouse for 10 days. 2×10^5 cells of the MOG-specific CDCT cells were cultured with 5×10^5 C57/B6-strain mouse bone marrow-derived dendritic cells (BMDCs) pulsed with MOG peptide in an RPMI 1640 medium containing 10% FBS in the presence of 20 ng/ml of recombinant IL-23 (rIL-23) protein in an incubator at a temperature of 37° C. to obtain a cell group containing pathogenic Th17 cells. […]
From day 0 to day 12, the clinical score in each mouse was evaluated according to the method described in Non-Patent Literature 1. […]
From day 0 to day 13, the clinical score in each mouse was evaluated according to the method described in Non-Patent Literature 1.

Test [6] relates to IL-6 amplifier. As to the kind of experiment: Reference Example 3: effect of growth factors on mIL-6 protein production in BC-1 cells (ELISA). In kind it is cell-based, mouse. To be noted: 24 hours, hIL-6/6R and mIL-17A each 50 ng/ml, growth factor added, versus none added. The procedure:
2×10^5 mouse BC-1 cells were cultured for 24 hours in an RPMI 1640 medium containing hIL-6/6R proteins each at 50 ng/ml and mIL-17A protein at 50 ng/ml under the condition in which 100 ng/ml of mouse EGF protein (R&D Systems, Inc.), 100 ng/ml of human HB-EGF protein (R&D Systems, Inc.), 0.1, 1, 10, or 100 ng/ml of mouse epiregulin protein (R&D Systems, Inc.), 50 ng/ml of mouse VEGF protein (R&D Systems, Inc.), 50 ng/ml of mouse FGF7 protein (R&D Systems, Inc.), or 300 ng/ml of mPDGF-CC protein (R&D Systems, Inc.) was separately added. Mouse BC-1 cells cultured under the condition in which only hIL-6/6R proteins and mIL-17A protein were added served as a control group.
After the culture, the production amount of mIL-6 protein under each condition was quantified by an ELISA method in the same manner as in Reference Example 1. FIGS. 5 and 6 show the results.

The mark [7] stands for this setting: mIL-6 + mIL-17A days 0, 1, 2, 10 micrograms into malleolus joints on each of days 0 to 23, scored day 0 to 23.

`COc1cc2ncnc(Nc3cccc(Br)c3)c2cc1OC` [PD153035, 4-[(3-Bromophenyl)amino]-6,7-dimethoxyquinazoline]: the “increase in the expression amount of mIL-6 protein due to activation of IL-6 amplifier” value with IL-6 amplifier [1] is “can be suppressed”. The “Increase in the amount of transcription of hIL-6 due to epiregulin protein” value in the test with IL-6 amplifier [2] is “inhibited in a manner dependent on the addition amount”. Also, the “symptom of arthritis (clinical score)” value in test [3] (setting [7]) is listed as “symptom of cytokine-induced arthritis was alleviated, or worsening of symptom of cytokine-induced arthritis was suppressed”. In addition, the “Increase in the amount of transcription of mIL-6 due to epiregulin protein (production amount of mouse IL-6 protein by ELISA)” value with IL-6 amplifier [4] is reported as “inhibited in a manner dependent on the addition amount”.
`C=CC(=O)Nc1ccc2ncnc(Nc3cccc(Br)c3)c2c1` [PD168393, 4-[(3-Bromophenyl)amino]-6-acrylamidoquinazoline]: in the test on IL-6 amplifier [1], the “increase in the expression amount of mIL-6 protein due to activation of IL-6 amplifier” value was “can be suppressed”. Besides, the “symptom of arthritis (clinical score)” value in test [3] (mIL-6 + mIL-17A days 0, 1, 2, 10 micrograms into malleolus joints on each of days 0 to 11, scored day 0 to 23) is listed as “symptom of cytokine-induced arthritis was alleviated, or worsening of symptom of cytokine-induced arthritis was suppressed”.
For `COc1cc2ncnc(Nc3ccc(F)c(Cl)c3)c2cc1OCCCN1CCOCC1` [gefitinib, N-(3-chloro-4-fluoro-phenyl)-7-methoxy-6-(3-morpholin-4-ylpropoxy) quinazolin-4-amine], the “symptom of experimental autoimmune encephalomyelitis (clinical score)” value in test [5] was “symptom of experimental autoimmune encephalomyelitis was alleviated, or worsening of symptom of experimental autoimmune encephalomyelitis was suppressed”. Moreover, the “symptom of arthritis (clinical score)” value in test [3] (setting [7]) was “symptom of cytokine-induced arthritis was alleviated, or worsening of symptom of cytokine-induced arthritis was suppressed”.
With “EGF protein: mouse EGF protein (R&D Systems, Inc.), ligand of ErbB1 protein (NSYPGCPSSYDGYCLNGGVCMHIESLDSYTCNCVIGYSGDRCQTRDLRWWELR)”, in the test with IL-6 amplifier [6], the “production amount of mIL-6 protein” value was “significantly (p value <0.01) increased”.
